According to paper PMC11909086, “Synthesis and characterization of novel bis(thiosemicarbazone) complexes and investigation of their acetylcholinesterase and glutathione S-transferase activities with in silico and in vitro studies” (Molecular Diversity, 2024):

What was measured:
[1] = molecular target: T1, GST (glutathione S-transferase); assay: CDNB-GSH conjugation, […] nm (Habig); assay type: biochemical; conditions: CDNB and GSH, phosphate pH […]
T1 construct: PDB 7BIB is only the docking model

[2] = molecular target: T1, GST (glutathione S-transferase); assay: CDNB-GSH conjugation, […] nm, Lineweaver–Burk; assay type: biochemical; conditions: CDNB and GSH, phosphate pH […]

In the case of `C=C(CC)C(=O)c1ccc(OCC(=O)O)c(Cl)c1Cl` [Ethacrynic acid, reference compound], the IC50 [1] is reported as 0.374 µM and the Ki [2] is reported as 9.39 ± 3.3 µM.
For `COc1ccc(NN=C2C(=NNC(N)=S)CCCC2=NNC(N)=S)cc1` [L, 2,2′-(2-(2-(4-methoxyphenyl)hydrazineylidene)cyclohexane-1,3-diylidene)bis(hydrazine-1-carbothioamide)], the IC50 [1] was 2.19 µM and the Ki [2] was 11.7 ± 5.45 µM.
